“And” between values parts separate entries of the source, which are not always exact repeats. Equal values may be shown once. Read-outs that look alike come from different tables or passages of the source.
Key:
[1] = test system: Permethrin Resistant A. aegypti (single KDR mutation); format: in vivo, Aedes aegypti
Protocol: (§1) In this bioassay, a wind tunnel bioassay was performed in New Mexico in July 2017. Aedes aegypti that were known to be resistant (single knockdown resistance (“KDR”) mutation) and susceptible to permethrin were used in the studies. The following solutions were applied to adult A. aegypti mosquitoes: 1) 1.5% abamectin; 2) 1.5% ivermectin; 3) 2% fenpropathrin; 4) a mixture of 2% fenpropathrin and 1.5% abamectin; 5) a mixture of 2% fenpropathrin and 1.5% abamectin; 6) a mixture of 2% fenpropathrin and 1.5% ivermectin; and 7) a mixture of 2% fenpropathrin and 1.5% ivermectin.
(§2) To determine if the mixtures provided unexpected results, the observed combined efficacy (“OCE”) was divided by the expected combined efficacy (“ECE”) wherein the expected ECE is calculated by the Abbott method: ECE=A+B−(AB/100), wherein ECE is the expected combined efficacy and in which A and B are the percent control given by the single active ingredients. If the ratio between the OCE of the mixture and the ECE of the mixture is greater than 1, then greater than expected interactions are present in the mixture. (Gisi, Synergistic Interaction of Fungicides in Mixtures, The American Phytopathological Society, 86:11, 1273-1279, 1996).

[2] = test system: Permethrin Susceptible A. aegypti; assay: Wind tunnel bioassay, adult mosquitoes (Example 1); format: in vivo
Protocol: as §1, §2

[3] = test system: Permethrin Resistant C. quinquefasciatus; assay: Wind tunnel bioassay, adult mosquitoes (Example 4); format: in vivo, Culex quinquefasciatus
Protocol: In this bioassay, a wind tunnel bioassay was performed in New Mexico in March 2020. C. quinquefasciatus that were known to be resistant and susceptible to permethrin were used in the studies. The following solutions were applied to adult C. quinquefasciatus mosquitoes: 1) 5% permethrin; 2) a mixture of 5% permethrin and, 1.5% abamectin; 3) a mixture of 5% permethrin, 1.5% abamectin and 1% C8, 9, 10 fatty acids; 4) a mixture of 5% permethrin and 1.5% ivermectin; and 5) a mixture of 5% permethrin, 1.5% ivermectin and 1% C8, 9, 10 fatty acids. Percent mortality was recorded at 15 minutes, 1 hour, 24 hours and 48 hours.

[4] = test system: Permethrin Susceptible C. quinquefasciatus; assay: Wind tunnel bioassay, adult mosquitoes (Example 4); format: in vivo, Culex quinquefasciatus
Protocol: In this bioassay, a wind tunnel bioassay was performed in New Mexico in March 2020. C. quinquefasciatus that were known to be resistant and susceptible to permethrin were used in the studies. […] Percent mortality was recorded at 15 minutes, 1 hour, 24 hours and 48 hours.

[5] = test system: Permethrin Susceptible C. quinquefasciatus; assay: Wind tunnel bioassay, adult mosquitoes (Example 5); format: in vivo
Protocol: (§3) If the ratio between the OCE of the mixture and the ECE of the mixture is greater than 1, then greater than expected interactions are present in the mixture. (Gisi, Synergistic Interaction of Fungicides in Mixtures, The American Phytopathological Society, 86:11, 1273-1279, 1996).
(§4) In this bioassay, a wind tunnel bioassay was performed in New Mexico in March 2020. C. quinquefasciatus that were known to be resistant and susceptible to permethrin were used in the studies. The following solutions were applied to adult C. quinquefasciatus mosquitoes: 1) 1.5% abamectin; 2) 1.5% ivermectin; 3) 5% pyrethrum; 4) a mixture of 5% pyrethrum and 1.5% abamectin; and 5) a mixture of 5% pyrethrum and 1.5% ivermectin. Percent mortality was recorded at 15 minutes, 1 hour, 24 hours and 48 hours.

[6] = test system: Permethrin Resistant C. quinquefasciatus; format: in vivo
Protocol: as §3, §4

Compound | % Mortality [1] | % Mortality [2] | % Mortality ([3]; 1 Hr) | % Mortality ([3]; 15 Min) | % Mortality ([3]; 24 Hr) | % Mortality ([3]; 48 Hr) | % Mortality ([4]; 1 Hr) | % Mortality ([4]; 15 Min) | % Mortality ([4]; 24 Hr) | % Mortality ([4]; 48 Hr) | % Mortality ([5]; 1 Hr) | % Mortality ([5]; 15 Min) | % Mortality ([5]; 24 Hr) | % Mortality ([5]; 48 Hr) | % Mortality ([6]; Example 5, 1 Hr) | % Mortality ([6]; Example 5, 15 Min) | % Mortality ([6]; Example 5, 24 Hr) | % Mortality ([6]; Example 5, 48 Hr)
CC1(C)C(C(=O)OC(C#N)c2cccc(Oc3ccccc3)c2)C1(C)C (stereo not drawn) [2.0% fenpropathrin, fenpropathrin] | 76% and 75.8% | 99.6% |  |  |  |  |  |  |  |  |  |  |  |  |  |  |  | 
CC1(C)C(C=C(Cl)Cl)C1C(=O)OCc1cccc(Oc2ccccc2)c1 (stereo not drawn) [5% permethrin, permethrin] |  |  | 78.8% | 0% | 65% | 66.3% | 100% | 65% | 100% | 100% |  |  |  |  |  |  |  | 
abamectin [1.5% abamectin] | 91% and 91.3% | 100% |  |  |  |  |  |  |  |  | 73.8% | 15% | 91.3% | 92.5% | 26.3% | 0% | 78.8% | 80%
ivermectin [1.5% ivermectin] | 64% and 62.9% | 100% |  |  |  |  |  |  |  |  | 62.5% | 5% | 100% | 100% | 42.5% | 0% | 88.8% | 91.3%

Source: patent publication US11985976B2, “Mixture of mectins and pyrethroids and uses thereof” (Valent BioSciences LLC, priority 2020, dated 2024)
